The target of assay [1] is T1, Chk1 protein kinase (Homo sapiens, UniProt O14757). As to conditions: EDTA 1 mM, 5 mM or 20 mM added before 21 mU Chk1; FIG. 11.
The target of assay [2] is T1, Chk1 protein kinase. As to conditions: EDTA 10 mM or 20 mM added prior to enzyme addition; FIG. 8.
Assay [3] addresses Yersinia protein tyrosine phosphatase (YOP) (Yersinia enterocolitica, UniProt P15273). It is filed as biochemical. Conditions: read-out: IC50 for inhibition of YOP.
The target in another assay is Src kinase (Homo sapiens, UniProt P12931). Briefly: FRET assay of Src phosphorylation of rhodamine labelled SHPS-1 peptide, read by binding to SHP2-GFP. It is filed as biochemical. As to conditions: 10 μM staurosporine added before the Src enzyme; FIG. 19. The procedure: These FRET-based assays are performed to measure Src kinase activity as determined by the Src kinase dependent formation of a complex between the SH2 domain of SHP2 labelled with a fluorophore and an synthetic peptide based on SHPS-1, also labelled with a fluorophore.
Interaction between the tandem SH2 domain of SHP2 and a synthetic peptide based on SHPS-1 is mediated by the state of phosphorylation of the peptide. A FRET partnership can be established between phosphorylated peptide and the SH2 domain providing both moieties are labelled with suitable fluorophores which are brought into close proximity upon interaction of binding partners. […]
SHP2-GFP was diluted to 0.5 μM in assay buffer (50 mM Tris HCL pH 7.2, 10 mM β-mercaptoethanol, 0.5 mg/ml BSA, 0.015% Brij 35). […] Initial readings of the fluorescence of the SHP2-GFP construct were made using 485 nm excitation wavelength and 520 nm emission wavelength. Rhodamine labelled peptide (2 μl of the above phosphorylation reactions) was added to the SHP2-GFP solution and formation of FRET was monitored in real-time by measuring the decrease in fluorescence emission of SHP2-GFP at 520 nm as shown in FIG. 17. […]

The target in assay [4] is T2, PKA Peptide 2, labelled with biotin and bound to streptavidin, non-phosphorylated (biotin label (bound to streptavidin in the assay)).
T2 construct: Coiled-coil forming peptide with a PKA phosphorylation site
T2 peptide: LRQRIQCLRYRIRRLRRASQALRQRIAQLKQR
Description: fluorescence polarisation of coumarin labelled peptide 1 with biotin labelled peptide 2 on streptavidin.

Where no end group is shown, it is not given here.

T1 sequence (O14757 whole entry): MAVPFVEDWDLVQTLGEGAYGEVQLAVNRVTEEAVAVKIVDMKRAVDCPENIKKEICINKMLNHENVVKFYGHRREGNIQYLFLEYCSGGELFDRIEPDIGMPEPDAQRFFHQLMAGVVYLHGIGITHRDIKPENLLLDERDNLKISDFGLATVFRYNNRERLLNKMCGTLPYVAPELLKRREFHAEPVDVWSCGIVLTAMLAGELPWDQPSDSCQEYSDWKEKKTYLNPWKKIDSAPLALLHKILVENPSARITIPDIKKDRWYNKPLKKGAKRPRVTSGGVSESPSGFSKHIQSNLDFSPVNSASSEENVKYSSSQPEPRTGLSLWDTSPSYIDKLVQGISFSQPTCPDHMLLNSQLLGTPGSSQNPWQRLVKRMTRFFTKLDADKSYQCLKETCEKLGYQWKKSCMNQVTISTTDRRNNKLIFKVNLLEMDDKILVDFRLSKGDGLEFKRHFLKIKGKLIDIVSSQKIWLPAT
Src kinase, sequence (P12931 whole entry, the tested form may be a part): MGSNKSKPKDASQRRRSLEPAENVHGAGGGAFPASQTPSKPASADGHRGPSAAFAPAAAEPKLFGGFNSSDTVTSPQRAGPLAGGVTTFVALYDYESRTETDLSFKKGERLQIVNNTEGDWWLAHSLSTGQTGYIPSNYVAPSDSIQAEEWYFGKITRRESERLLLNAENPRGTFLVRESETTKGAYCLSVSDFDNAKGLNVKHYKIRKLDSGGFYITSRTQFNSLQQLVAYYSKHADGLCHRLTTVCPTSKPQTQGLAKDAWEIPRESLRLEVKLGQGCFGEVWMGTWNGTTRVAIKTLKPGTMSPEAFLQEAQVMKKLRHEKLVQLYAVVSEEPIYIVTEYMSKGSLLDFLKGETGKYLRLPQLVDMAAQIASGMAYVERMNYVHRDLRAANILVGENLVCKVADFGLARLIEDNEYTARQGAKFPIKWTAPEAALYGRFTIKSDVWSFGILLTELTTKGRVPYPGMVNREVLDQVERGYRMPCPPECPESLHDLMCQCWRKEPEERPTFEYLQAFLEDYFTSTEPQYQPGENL
Yersinia protein tyrosine phosphatase (YOP), sequence (P15273 whole entry, the tested form may be a part): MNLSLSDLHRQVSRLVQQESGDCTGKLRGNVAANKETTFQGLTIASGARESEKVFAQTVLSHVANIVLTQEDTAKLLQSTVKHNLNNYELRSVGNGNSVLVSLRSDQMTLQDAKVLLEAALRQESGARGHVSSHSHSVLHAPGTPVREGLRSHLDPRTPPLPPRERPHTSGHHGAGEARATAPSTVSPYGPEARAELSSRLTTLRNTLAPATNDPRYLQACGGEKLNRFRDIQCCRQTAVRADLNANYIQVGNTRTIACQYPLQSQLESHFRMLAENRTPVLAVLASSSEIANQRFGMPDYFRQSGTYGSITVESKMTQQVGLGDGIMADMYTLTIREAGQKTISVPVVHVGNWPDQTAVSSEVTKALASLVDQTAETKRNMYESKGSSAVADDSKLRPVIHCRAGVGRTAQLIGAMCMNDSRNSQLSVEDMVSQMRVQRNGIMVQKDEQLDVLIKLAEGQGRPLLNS

Consider `O=C(O)CN(CCN(CC(=O)O)CC(=O)O)CC(=O)O` [EDTA], for which, at Chk1 protein kinase [1], the “Inhibition of Chk1 phosphorylation of fluorescein labelled Chktide (real time)” value is “inhibition”. On Chk1 protein kinase [2], the “Inhibition of Chk1 phosphorylation of Chktide peptide (end point)” value is given as “inhibition”.

Turning to `[Na+].[Na+].[Na+].[O]=[V]([O-])([O-])[O-]` [vanadate, Sodium orthovanadate], the IC50 in assay [3] is 250 nM.

Regarding `CN[C@@H]1C[C@H]2O[C@@](C)([C@@H]1OC)n1c3ccccc3c3c4c(c5c6ccccc6n2c5c31)C(=O)NC4` [staurosporine], the “Inhibition of Src: formation of FRET partnership between SH2 domain of SHP2 and SHPS-1 peptide” value on Src kinase is listed as “failed to form a FRET partnership”.

B1: PKA Peptide 1, labelled with coumarin, non-phosphorylated (peptide)
peptide: EREIKALEREIRRLRRASQALEREIAQLERE
modifications: also: coumarin label, position not given here
notes: Coiled-coil forming peptide with a PKA phosphorylation site; also called coumarin labelled peptide 1
For the molecule B1, the binding result in assay [4] was “binds”.

Values taken from US6670144B1 (priority 1999, dated 2003).
